Biological target: T1, bovine testis-derived hyaluronidase (Type IV of Sigma) (Bos taurus, UniProt Q2YDK3)
T1 construct: purchased Sigma Type IV; host or cells: bovine testis
T1 sequence (Q2YDK3 36-553): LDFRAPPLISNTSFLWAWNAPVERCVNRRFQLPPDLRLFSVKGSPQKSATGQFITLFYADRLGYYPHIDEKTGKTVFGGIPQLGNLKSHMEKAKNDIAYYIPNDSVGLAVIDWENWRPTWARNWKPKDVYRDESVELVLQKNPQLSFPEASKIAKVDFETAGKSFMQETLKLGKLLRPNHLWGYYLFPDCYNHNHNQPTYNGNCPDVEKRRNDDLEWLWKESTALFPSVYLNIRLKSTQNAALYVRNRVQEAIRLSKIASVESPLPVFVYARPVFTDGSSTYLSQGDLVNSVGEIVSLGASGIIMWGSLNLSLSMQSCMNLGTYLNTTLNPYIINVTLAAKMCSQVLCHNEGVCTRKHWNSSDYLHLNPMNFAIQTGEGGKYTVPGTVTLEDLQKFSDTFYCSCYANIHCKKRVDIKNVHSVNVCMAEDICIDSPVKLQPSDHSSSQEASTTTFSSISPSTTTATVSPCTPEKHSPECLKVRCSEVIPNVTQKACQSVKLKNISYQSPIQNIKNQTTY
Assay: Assay for the hyaluronidase inhibiting activity (inhibition of compound 48/80 activation of inactivated enzyme, colorimetric A585)
Type: biochemical
Details: 0.1M acetate buffer pH 4.0, 37° C., enzyme activated with compound 48/80, sodium hyaluronate substrate
Protocol: Stated more specifically, a suitable amount of a test sample was dissolved in 100 μl of a 0.1M acetate buffer solution (pH 4.0) and the solution was pipetted into a test tube. Following the addition of 0.10 mg (100 NF units) of the enzyme dissolved in 50 μl of the same buffer solution, the mixture was incubated at 37° C. for 20 min. […] Thereafter, 200 μg of sodium hyaluronate derived from a microorganism dissolved in 250 μl of the same buffer solution was added and the mixture was incubated at 37° C. for 40 min. Finally, 100 μl of 0.4N NaOH was added and, after cooling with ice, 100 μl of a borate buffer solution (pH 9.10) was added and the mixture was boiled for 3 min; after cooling with ice, 3 ml of a p-dimethylaminobenzaldehyde solution was added and the mixture was incubated for 20 min at 37° C. before [MUT] measurement was conducted. In place of the sample solution, 0.1M acetate buffer solution (pH 4.0) was used to prepare a control. […] The hyaluronidase inhibiting activity of the sample solution was expressed by percent inhibition as determined from the following equation: [formula] where A: [MUT] of the control solution B: [MUT] of the blank for the control solution C: [MUT] of the sample solution D: [MUT] of the blank for the sample solution.

IC50: 299 µM
Structure (SMILES): O=C(O)c1cc(=O)c2c(OCC(O)COc3cccc4oc(C(=O)O)cc(=O)c34)cccc2o1 [Sodium cromoglycate]

Reference: US5843911A, “Hyaluronidase inhibitor containing god-type ellagitannin as active ingredient” (Suntory Limited, priority 1995, dated 1998)
